In ChEMBL document CHEMBL3751689, “Synthesis and biological properties of prodrugs of (S)-3-(adenin-9-yl)-2-(phosphonomethoxy)propanoic acid” (Eur J Med Chem, 2016):
Calls of active or inactive are those of the source. The rule behind the calls is not given here.

What was measured:
[1] = tested on: Human immunodeficiency virus 1; experiment: Antiviral activity against HIV1 infected in MT4 cells; assay type: functional, organism-based; conditions: Human immunodeficiency virus 1, MT4
[2] = Cytotoxicity against human MT4 cells; assay type: cell-based
[3] = tested on: Human rhinovirus 1A; experiment: Antiviral activity against HRV1A infected in HeLa cells; assay type: functional, organism-based
[4] = Cytotoxicity against human HeLa cells; assay type: cell-based
[5] = tested on: Hepatitis C virus; experiment: Antiviral activity against HCV genotype 1a replicon infected in human HuH7 cells after 3 days by renilla luciferase assay; assay type: functional, organism-based, Hepacivirus hominis; conditions: subtype 1a; for EC50: Huh-7, 72 h; for Activity: Hepacivirus hominis, Huh-7
[6] = Cytotoxicity against human HuH7 infected with HCV genotype 1a cells after 3 days by calcein-AM dye based fluorescence analysis; assay type: cell-based, Huh-7; conditions: HuH7 cells infected with HCV genotype 1a
[7] = tested on: Hepatitis C virus; experiment: Antiviral activity against HCV genotype 1b replicon infected in HuH7 cells after 3 days by renilla luciferase assay; assay type: functional, organism-based, Hepacivirus hominis; conditions: for EC50: Huh-7, 72 h; for Activity: Hepacivirus hominis, Huh-7
[8] = Cytotoxicity against human HuH7 infected with HCV genotype 1b cells after 3 days by calcein-AM dye based fluorescence analysis; assay type: cell-based, Huh-7; conditions: HuH7 cells infected with HCV genotype 1b
[9] = tested on: Hepatitis C virus; experiment: Antiviral activity against HCV genotype 2a replicon infected in HuH7 cells after 3 days by renilla luciferase assay; assay type: functional, organism-based, Hepacivirus hominis; conditions: for EC50: Huh-7, 72 h; for Activity: Hepacivirus hominis, Huh-7
[10] = Cytotoxicity against human HuH7 infected with HCV genotype 2a cells after 3 days by calcein-AM dye based fluorescence analysis; assay type: cell-based, Huh-7; conditions: HuH7 cells infected with HCV genotype 2a
[11] = tested on: Bordetella pertussis; experiment: Inhibition of Bordetella pertussis CyaA in mouse J774A.1 cells assessed as cAMP formation at 10 uM by immunoassay relative to control; assay type: cell-based; conditions: values are per cent of control
[12] = Selectivity index, ratio of CC50 for human HuH7 cells to EC50 for HCV genotype 1a; set-up: species or system Huh-7
[13] = Selectivity index, ratio of CC50 for human HuH7 cells to EC50 for HCV genotype 1b; set-up: species or system Huh-7
[14] = Selectivity index, ratio of CC50 for human HuH7 cells to EC50 for HCV genotype 2a; set-up: species or system Huh-7

Row | EC50 [1] [µM] | EC50 [3] [µM] | EC50 [5] [µM] | EC50 [7] [µM] | EC50 [9] [µM] | SMILES | CC50 [2] [µM] | CC50 [4] [µM] | CC50 at 72 h [6] [µM] | CC50 at 72 h [8] [µM] | CC50 at 72 h [10] [µM] | residual activity [11] [%] | Activity [5] | Activity [7] | Activity [9] | Ratio CC50/EC50 [12] | Ratio CC50/EC50 [13] | Ratio CC50/EC50 [14]
1 | > 53.2 | > 50 | > 44.4 | > 44.4 | > 44.4 | Nc1ncnc2c1ncn2C[C@H](OCP(=O)(O)O)C(=O)O | > 53.2 | > 50 | > 44.4 | > 44.4 | > 44.4 |  |  |  |  |  |  | 
2 |  |  |  |  |  | Nc1ncnc2c1ncn2C[C@H](OCP(=O)(O)O)C(=O)NC1CC1 |  |  |  |  |  | 135 | inactive | inactive | inactive |  |  | 
3 | > 53.2 | > 50 | 0.6 | 1.1 | 0.6 | CCOC(=O)[C@H](Cc1ccccc1)NP(=O)(CO[C@@H](Cn1cnc2c(N)ncnc21)C(=O)OC)N[C@@H](Cc1ccccc1)C(=O)OCC | 0.7 | > 50 | 18.3 | 30.4 | 12.6 | 112 |  |  |  | 30 | 30 | 30
4 | > 53.2 | > 50 | > 44.4 | > 44.4 | > 44.4 | CCOC(=O)[C@H](C)NC(=O)[C@H](Cn1cnc2c(N)ncnc21)OCP(=O)(N[C@@H](C)C(=O)OCC)N[C@@H](C)C(=O)OCC | > 53.2 | > 50 | > 44.4 | > 44.4 | > 44.4 |  |  |  |  |  |  | 
5 | > 53.2 | > 50 | > 44.4 | > 44.4 | 39.2 | CCOC(=O)[C@H](C)NP(=O)(CO[C@@H](Cn1cnc2c(N)ncnc21)C(=O)OC)N[C@@H](C)C(=O)OCC | 40.5 | > 50 | > 44.4 | > 44.4 | > 44.4 | 139 |  |  |  |  |  | 
6 |  |  |  |  |  | NC(=O)[C@H](Cn1cnc2c(N)ncnc21)OCP(=O)(O)O |  |  |  |  |  | 66 | inactive | inactive | inactive |  |  | 
7 |  |  |  |  |  | COC(=O)[C@H](Cn1cnc2c(N)ncnc21)OCP(=O)(O)O |  |  |  |  |  | 90 | inactive | inactive | inactive |  |  | 
8 | > 53.2 | > 50 | 20.6 | 30.9 | 9.6 | CCCCCCCCCCCCCCCCOCCCOP(=O)(O)CO[C@@H](Cn1cnc2c(N)ncnc21)C(=O)OC | 3.7 | > 50 | > 44.4 | > 44.4 | > 44.4 | 140 |  |  |  |  |  | 

Row | SMILES | EC50 [1] [µM] | EC50 [3] [µM] | EC50 [5] [µM] | EC50 [7] [µM] | EC50 [9] [µM] | CC50 [2] [µM] | CC50 [4] [µM] | CC50 at 72 h [6] [µM] | CC50 at 72 h [8] [µM] | CC50 at 72 h [10] [µM] | residual activity [11] [%] | Activity [5] | Activity [7] | Activity [9] | Ratio CC50/EC50 [12] | Ratio CC50/EC50 [13] | Ratio CC50/EC50 [14]
9 | CCOC(=O)[C@H](Cc1ccccc1)NP(=O)(CO[C@@H](Cn1cnc2c(N)ncnc21)C(=O)OC)Oc1ccccc1 (some centres not stated) | > 53.2 | > 50 | 0.8 | 1.5 | 0.6 | 1.4 | > 50 | 42.6 | > 44.4 | 25.3 | 68 |  |  |  | 30 | 30 | 30
